Laboratory results reported in US20090088412A1, “COMPOSITION FOR TREATING CANCER CELLS AND PREPARATION METHOD THEREOF” (KAOHSIUNG MEDICAL UNIVERSITY, priority 2007, published 2009).
≈ marks a conversion by molar mass, not a printed value.

Assays:
[1] = test system: MDA-MB-231; assay: MTT cytotoxicity test, MDA-MB-231; format: cell-based, human; settings: breast cancer cell line, 72 hours
Description: (§1) The bioactivities of the 25 new withanolide compounds of the present invention are further studied. The bioactivities are measured by examining cytotoxicity tests with 5 human cancer cell lines, including MCF-7 and MDA-MB-231 (which are the breast cancer cell lines), Hep G2 and Hep 3B (which are the liver cancer cell line), and A549 (which is lung cancer cell line). In addition, a normal human lung cell line (MRC-5) is served as the control group. All human cancer cell lines come from the American Type Culture Collection. The respective cell lines are cultured in RPMI-1640 medium with 10% (v/v) fetal calf serum, 100 U/ml penicillin and 100 µg/ml streptomycin, and incubated at 37° C. in 5% CO2 atmosphere.
(§2) In the present invention, the cytotoxicity tests are performed with MTT (3-(4,5-dimethyl-thiazol-2-yl)-2,5-diphenyl tetrazolium bromide) method. The five cancer cell lines and the normal cell line (MRC-5) are firstly incubated in a 96-well culture dish with concentrations of 5,000˜10,000 cells/well. In Day 2, the respective incubated cells are added with the withanolide compounds of the present invention and Doxorubicin and are incubated for additional 72 hours. Afterwards, the incubated cells are examined with the MTT method including steps of dissolving the incubated cells in DMSO, and determining the absorbance of each cell line to each compound by a microplate reader in 550 nm to evaluate the cytotoxicity of each compound to each cell line. […] The IC50 represents the concentration of the compound that is required for 50% inhibition of the cell growth, and Doxorubicin serves as the positive control group.

[2] = test system: MCF-7; assay: MTT cytotoxicity test, MCF-7; format: cell-based, human; settings: breast cancer cell line, 72 hours
Description: as §1, §2

[3] = test system: Hep 3B; assay: MTT cytotoxicity test, Hep 3B; format: cell-based, human; settings: liver cancer cell line, 72 hours
Description: as §1, §2

[4] = test system: Hep G2; assay: MTT cytotoxicity test, Hep G2; format: cell-based, human; settings: liver cancer cell line, 72 hours
Description: as §1, §2

[5] = test system: A-549; assay: MTT cytotoxicity test, A-549; format: cell-based, human; settings: lung cancer cell line, 72 hours
Description: as §1, §2

[6] = test system: MRC-5; assay: MTT cytotoxicity test, normal lung cell line MRC-5; format: cell-based; settings: normal human lung cell line, 72 hours
Description: as §1, §2

SMILES | IC50 MDA-MB-231 [1] | IC50 MCF-7 [2] | IC50 Hep 3B [3] | IC50 Hep G2 [4] | IC50 A-549 [5] | IC50 MRC-5 [6]
CC1=C(C)C(=O)O[C@@H]([C@@H](C)[C@@]2(C)C3=C(C[C@H]2O)[C@@H]2C[C@H]4O[C@]45[C@@H](O)C(O)CC(=O)[C@]5(C)[C@H]2CC3)C1 (stereo partly drawn) [Compound 3, Tubocapsenolide C] | >20 mg/L | >20 mg/L | >20 mg/L | 15.93 mg/L (≈ 32.7 µM) | 7.06 mg/L (≈ 14.5 µM) | 
CCCCOC1CC(=O)[C@]2(C)[C@H]3CCC4=C(C[C@@H](O)[C@@]4(C)[C@H](C)[C@H]4CC(C)=C(C)C(=O)O4)[C@@H]3C[C@H]3O[C@]32[C@H]1O (stereo partly drawn) [Compound 5, Tubocapsenolide E] | 17.50 mg/L (≈ 32.2 µM) | >20 mg/L | 13.20 mg/L (≈ 24.3 µM) | 12.31 mg/L (≈ 22.7 µM) | 15.94 mg/L (≈ 29.4 µM) | 
CC1=C(C)C(=O)O[C@@H]([C@@H](C)[C@@]2(C)C3=C(C[C@H]2O)[C@@H]2C[C@H](O)[C@]4(O)[C@@H](O)C=CC(=O)[C@]4(C)[C@H]2CC3)C1 [Compound 6, Tubocapsenolide F] | 8.41 mg/L (≈ 17.3 µM) | 14.71 mg/L (≈ 30.2 µM) | 15.07 mg/L (≈ 31 µM) | >20 mg/L | 6.04 mg/L (≈ 12.4 µM) | 
CC1=C(C)C(=O)O[C@@H]([C@@H](C)[C@@]2(C)C3=C(C[C@H]2O)[C@@H]2C[C@H](Cl)[C@]4(O)[C@@H](O)C=CC(=O)[C@]4(C)[C@H]2CC3)C1 [Compound 7, Tubocapsenolide G] | >20 mg/L | >20 mg/L | >20 mg/L | 19.12 mg/L (≈ 37.9 µM) | 19.94 mg/L (≈ 39.5 µM) | 
CC1=C(C)C(=O)O[C@@H]([C@@H](C)[C@@]23O[C@@H]2C[C@H]2[C@@H]4C[C@H]5O[C@]56[C@@H](O)C=CC(=O)[C@]6(C)[C@H]4CC[C@@]23C)C1 [Compound 8, Tubocapsanolide A] | 0.22 mg/L (≈ 0.469 µM) | 1.47 mg/L (≈ 3.14 µM) | 0.42 mg/L (≈ 0.896 µM) | 0.86 mg/L (≈ 1.84 µM) | 0.47 mg/L (≈ 1 µM) | 0.73 mg/L (≈ 1.56 µM)
CC1=C(C)C(=O)O[C@@H]([C@](C)(O)[C@@]23O[C@@H]2C[C@H]2[C@@H]4C[C@H]5O[C@]56[C@@H](O)C=CC(=O)[C@]6(C)[C@H]4CC[C@@]23C)C1 [Compound 9, 20-Hydroxytubocapsanolide A] | 0.99 mg/L (≈ 2.04 µM) | 1.77 mg/L (≈ 3.65 µM) | 0.99 mg/L (≈ 2.04 µM) | 0.73 mg/L (≈ 1.51 µM) | 1.42 mg/L (≈ 2.93 µM) | 1.36 mg/L (≈ 2.81 µM)
CC1=C(C)[C@H](O)[C@H]([C@@H](C)[C@@]23O[C@@H]2C[C@H]2[C@@H]4C[C@H]5O[C@]56[C@@H](O)C=CC(=O)[C@]6(C)[C@H]4CC[C@@]23C)OC1=O [Compound 10, 23-Hydroxytubocapsanolide A] | 1.19 mg/L (≈ 2.46 µM) | 2.05 mg/L (≈ 4.23 µM) | 0.49 mg/L (≈ 1.01 µM) | 0.44 mg/L (≈ 0.908 µM) | 0.79 mg/L (≈ 1.63 µM) | 0.90 mg/L (≈ 1.86 µM)
CC1=C(C)C(=O)O[C@@H]([C@@H](C)[C@@]2(O)CC[C@H]3[C@@H]4C[C@H](O)[C@]5(O)[C@@H](O)C=CC(=O)[C@]5(C)[C@H]4CC[C@@]32C)C1 [Compound 13, Tubocapsanolide D] | 13.49 mg/L (≈ 27.6 µM) | >20 mg/L | 7.19 mg/L (≈ 14.7 µM) | >20 mg/L | 8.01 mg/L (≈ 16.4 µM) | 
CC1=C(C)C(=O)O[C@@H]([C@@H](C)[C@@]2(O)CC[C@H]3[C@@H]4C[C@H]5O[C@]56[C@@H](O)C=CC(=O)[C@]6(C)[C@H]4CC[C@@]32C)C1 [Compound 14, Tubocapsanolide F] | 0.99 mg/L (≈ 2.1 µM) | 1.98 mg/L (≈ 4.21 µM) | 0.80 mg/L (≈ 1.7 µM) | 0.64 mg/L (≈ 1.36 µM) | 0.88 mg/L (≈ 1.87 µM) | 0.81 mg/L (≈ 1.72 µM)
COC1CC(=O)[C@]2(C)[C@H]3CC[C@@]4(C)[C@@H](CC[C@]4(O)[C@H](C)[C@H]4CC(C)=C(C)C(=O)O4)[C@@H]3C[C@H]3O[C@]32[C@H]1O (stereo partly drawn) [Compound 15, Tubocapsanolide G] | >20 mg/L | >20 mg/L | >20 mg/L | 17.55 mg/L (≈ 34.9 µM) | >20 mg/L | 
COC1CC(=O)[C@]2(C)[C@H]3CC[C@]4(C)[C@@H]([C@@](C)(O)[C@H]5CC(C)=C(C)C(=O)O5)CC[C@H]4[C@@H]3C[C@H]3O[C@]32[C@H]1O (stereo partly drawn) [Compound 16, iso-Tubocapsanolide G] | 8.18 mg/L (≈ 16.3 µM) | >20 mg/L | 7.63 mg/L (≈ 15.2 µM) | 5.99 mg/L (≈ 11.9 µM) | 4.73 mg/L (≈ 9.41 µM) | 
COC1CC(=O)[C@]2(C)[C@H]3CC[C@@]4(C)[C@@H](CC[C@]4(O)[C@@](C)(O)[C@H]4CC(C)=C(C)C(=O)O4)[C@@H]3C[C@H]3O[C@]32[C@H]1O (stereo partly drawn) [Compound 17, 20-Hydroxytubocapsanolide G] | 4.44 mg/L (≈ 8.56 µM) | 17.25 mg/L (≈ 33.3 µM) | 12.30 mg/L (≈ 23.7 µM) | 2.51 mg/L (≈ 4.84 µM) | 2.67 mg/L (≈ 5.15 µM) | 7.20 mg/L (≈ 13.9 µM)
COC1CC(=O)[C@]2(C)[C@H]3CC[C@]4(C)C([C@@](C)(O)[C@H]5CC(C)=C(C)C(=O)O5)=CC[C@H]4[C@@H]3C[C@H]3O[C@]32[C@H]1O (stereo partly drawn) [Compound 18, Tubocapsanolide H] | 4.82 mg/L (≈ 9.63 µM) | 9.27 mg/L (≈ 18.5 µM) | 2.65 mg/L (≈ 5.29 µM) | 3.67 mg/L (≈ 7.33 µM) | 7.50 mg/L (≈ 15 µM) | 15.23 mg/L (≈ 30.4 µM)
C[C@@]12CC([C@@]3(O)CC[C@H]4[C@@H]5C[C@H]6O[C@]67[C@@H](O)C=CC(=O)[C@]7(C)[C@H]5CC[C@@]43C)[C@@H](C1)OC(=O)[C@]2(C)O (stereo partly drawn) [Compound 19, Anomanolide A] | 1.37 mg/L (≈ 2.82 µM) | 2.31 mg/L (≈ 4.75 µM) | 3.63 mg/L (≈ 7.46 µM) | 3.11 mg/L (≈ 6.39 µM) | 1.01 mg/L (≈ 2.08 µM) | 1.91 mg/L (≈ 3.93 µM)
C[C@@]12CC([C@@]3(O)CC[C@H]4[C@@H]5C[C@H](O)[C@]6(O)[C@@H](O)C=CC(=O)[C@]6(C)[C@H]5CC[C@@]43C)[C@@H](C1)OC(=O)[C@]2(C)O (stereo partly drawn) [Compound 20, Anomanolide B] | 0.70 mg/L (≈ 1.39 µM) | 4.84 mg/L (≈ 9.59 µM) | 3.17 mg/L (≈ 6.28 µM) | 0.97 mg/L (≈ 1.92 µM) | 1.49 mg/L (≈ 2.95 µM) | 0.20 mg/L (≈ 0.396 µM)
C[C@@]12CC([C@@]3(O)[C@H](O)C[C@H]4[C@@H]5C[C@H]6O[C@]67[C@@H](O)C=CC(=O)[C@]7(C)[C@H]5CC[C@@]43C)[C@@H](C1)OC(=O)[C@]2(C)O (stereo partly drawn) [Compound 21, Anomanolide C] | 1.58 mg/L (≈ 3.14 µM) | 8.01 mg/L (≈ 15.9 µM) | 1.85 mg/L (≈ 3.68 µM) | 4.41 mg/L (≈ 8.77 µM) | 2.80 mg/L (≈ 5.57 µM) | 
C[C@@]12CC([C@@]3(O)[C@H](O)C[C@H]4[C@@H]5C[C@H](Cl)[C@]6(O)[C@@H](O)C=CC(=O)[C@]6(C)[C@H]5CC[C@@]43C)[C@@H](C1)OC(=O)[C@]2(C)O (stereo partly drawn) [Compound 22, Anomanolide D] | >20 mg/L | >20 mg/L | 19.03 mg/L (≈ 35.3 µM) | >20 mg/L | >20 mg/L | 
C[C@@]12CC([C@@]3(O)[C@H](O)C[C@H]4[C@@H]5C[C@H](O)[C@]6(O)CC=CC(=O)[C@]6(C)[C@H]5CC[C@@]43C)[C@@H](C1)OC(=O)[C@]2(C)O (stereo partly drawn) [Compound 23, Anomanolide E] | >20 mg/L | >20 mg/L | >20 mg/L | >20 mg/L | >20 mg/L | 
C[C@@]12CC([C@@]3(O)[C@H](O)C[C@H]4[C@@H]5CC[C@]6(O)[C@@H](O)C=CC(=O)[C@]6(C)[C@H]5CC[C@@]43C)[C@@H](C1)OC(=O)[C@]2(C)O (stereo partly drawn) [Compound 24, Anomanolide F] | >20 mg/L | >20 mg/L | >20 mg/L | >20 mg/L | >20 mg/L | 
C[C@]1(O)C[C@H]2OC(=O)[C@]1(C)C[C@H]2[C@@]1(O)[C@H](O)C[C@H]2[C@@H]3C[C@H](Cl)[C@]4(O)[C@@H](O)C=CC(=O)[C@]4(C)[C@H]3CC[C@@]21C [Compound 25, Tubonolide A] | >20 mg/L | 12.03 mg/L (≈ 22.3 µM) | 6.54 mg/L (≈ 12.1 µM) | 5.09 mg/L (≈ 9.44 µM) | 5.91 mg/L (≈ 11 µM) | 
